Assay results published in ChEMBL document CHEMBL3885881, “DrugMatrix”.

Species on record: Rattus norvegicus
Test: DrugMatrix - Regimen: Daily Repeat
Type: toxicity, organism-based, Sprague-Dawley
Set-up: regimen Daily Repeat, gender Male, age 6-8 weeks
Conditions: in vivo, po, route oral GAVAGE, vehicle .5 % CMC; for ABSOLUTE BASOPHIL / ABSOLUTE EOSINOPHIL / ABSOLUTE LYMPHOCYTE / ABSOLUTE MONOCYTE / ABSOLUTE SEGMENTED NEUTROPHIL / BASOPHIL / EOSINOPHIL / ERYTHROCYTE COUNT / HEMATOCRIT / HEMOGLOBIN / LEUKOCYTE COUNT / LYMPHOCYTE / MEAN CORPUSCULAR HEMOGLOBIN / MEAN CORPUSCULAR HEMOGLOBIN CONCENTRATION / MEAN CORPUSCULAR VOLUME / MONOCYTE / NEUTROPHIL / NUCLEATED RED BLOOD CELLS / PLATELET COUNT: tissue Blood; for ALANINE AMINOTRANSFERASE / ALBUMIN / ALKALINE PHOSPHATASE / ASPARTATE AMINOTRANSFERASE / BLOOD UREA NITROGEN / CARBON DIOXIDE / CHLORIDE / CHOLESTEROL / CREATINE PHOSPHOKINASE / CREATININE / GLUCOSE / LACTATE DEHYDROGENASE / LIPASE / PHOSPHORUS / POTASSIUM / SODIUM / TOTAL BILIRUBIN / TOTAL PROTEIN / URIC ACID: tissue Plasma
[1] = 0 mg/kg, 72 h, dose level Control, time 3 day
[2] = 0 mg/kg, 120 h, dose level Control, time 5 day
[3] = 3 mg/kg, 72 h, dose level Low, time 3 day

## CC(=O)Nc1ccc2c(c1)Cc1ccccc1-2 [2-ACETYLAMINOFLUORENE]
[1]
  ABSOLUTE BASOPHIL: 0 CELLS/uL
  ABSOLUTE EOSINOPHIL: 171.33 CELLS/uL
  ABSOLUTE LYMPHOCYTE: 13776.5 CELLS/uL
  ABSOLUTE MONOCYTE: 180.83 CELLS/uL
  ABSOLUTE SEGMENTED NEUTROPHIL: 1121.33 CELLS/uL
  BASOPHIL: 0%
  EOSINOPHIL: 1%
  ERYTHROCYTE COUNT: 5.56 x10E6/uL
  HEMATOCRIT: 34.75%
  HEMOGLOBIN: 13.68 G/DL
  LEUKOCYTE COUNT: 15.25 x10E3/uL
  LYMPHOCYTE: 90.17%
  MEAN CORPUSCULAR HEMOGLOBIN: 24.6 pg
  MEAN CORPUSCULAR HEMOGLOBIN CONCENTRATION: 39.4 G/DL
  MEAN CORPUSCULAR VOLUME: 62.48 fL
  MONOCYTE: 1.17%
  NEUTROPHIL: 7.67%
  NUCLEATED RED BLOOD CELLS: 0 /100WBC
  PLATELET COUNT: 1342 x10E3/uL
  ALANINE AMINOTRANSFERASE: 49.67 u/L
  ALBUMIN: 4.15 G/DL
  ALKALINE PHOSPHATASE: 346.83 u/L
  ASPARTATE AMINOTRANSFERASE: 108.17 u/L
  BLOOD UREA NITROGEN: 17.33 mg/dL
  CARBON DIOXIDE: 25 mmol/L
  CHLORIDE: 100.83 MEQ/L
  CHOLESTEROL: 66.83 mg/dL
  CREATINE PHOSPHOKINASE: 788 u/L
  CREATININE: 0.18 mg/dL
  GLUCOSE: 151.67 mg/dL
  LACTATE DEHYDROGENASE: 982.5 u/L
  LIPASE: 10.33 u/L
  PHOSPHORUS: 11.23 mg/dL
  POTASSIUM: 6.37 MEQ/L
  SODIUM: 141.02 MEQ/L
  TOTAL BILIRUBIN: 0.18 mg/dL
  TOTAL PROTEIN: 5.9 G/DL
  URIC ACID: 1.8 mg/dL
[2]
  ABSOLUTE BASOPHIL: 0 CELLS/uL
  ABSOLUTE EOSINOPHIL: 69 CELLS/uL
  ABSOLUTE LYMPHOCYTE: 13632.83 CELLS/uL
  ABSOLUTE MONOCYTE: 139.83 CELLS/uL
  ABSOLUTE SEGMENTED NEUTROPHIL: 1225 CELLS/uL
  BASOPHIL: 0%
  EOSINOPHIL: 0.33%
  ERYTHROCYTE COUNT: 5.52 x10E6/uL
  HEMATOCRIT: 33.98%
  HEMOGLOBIN: 13.22 G/DL
  LEUKOCYTE COUNT: 15.07 x10E3/uL
  LYMPHOCYTE: 90.83%
  MEAN CORPUSCULAR HEMOGLOBIN: 23.95 pg
  MEAN CORPUSCULAR HEMOGLOBIN CONCENTRATION: 38.9 G/DL
  MEAN CORPUSCULAR VOLUME: 61.53 fL
  MONOCYTE: 0.83%
  NEUTROPHIL: 8%
  NUCLEATED RED BLOOD CELLS: 0 /100WBC
  PLATELET COUNT: 1196 x10E3/uL
  ALANINE AMINOTRANSFERASE: 49.17 u/L
  ALBUMIN: 4.2 G/DL
  ALKALINE PHOSPHATASE: 352.33 u/L
  ASPARTATE AMINOTRANSFERASE: 89.67 u/L
  BLOOD UREA NITROGEN: 18 mg/dL
  CARBON DIOXIDE: 27.67 mmol/L
  CHLORIDE: 101 MEQ/L
  CHOLESTEROL: 72.83 mg/dL
  CREATINE PHOSPHOKINASE: 417.5 u/L
  CREATININE: 0.18 mg/dL
  GLUCOSE: 150.5 mg/dL
  LACTATE DEHYDROGENASE: 517.33 u/L
  LIPASE: 9 u/L
  PHOSPHORUS: 11.87 mg/dL
  POTASSIUM: 6.57 MEQ/L
  SODIUM: 143.62 MEQ/L
  TOTAL BILIRUBIN: 0.2 mg/dL
  TOTAL PROTEIN: 6.08 G/DL
  URIC ACID: 1.45 mg/dL
[3]
  ABSOLUTE BASOPHIL: 0 CELLS/uL
  ABSOLUTE EOSINOPHIL: 75.33 CELLS/uL
  ABSOLUTE LYMPHOCYTE: 11859.67 CELLS/uL
  ABSOLUTE MONOCYTE: 186.67 CELLS/uL
  ABSOLUTE SEGMENTED NEUTROPHIL: 911.67 CELLS/uL
  BASOPHIL: 0%
  EOSINOPHIL: 0.67%
  ERYTHROCYTE COUNT: 5.43 x10E6/uL
  HEMATOCRIT: 34.07%
  HEMOGLOBIN: 13.33 G/DL
  LEUKOCYTE COUNT: 13.03 x10E3/uL
  LYMPHOCYTE: 91%
  MEAN CORPUSCULAR HEMOGLOBIN: 24.57 pg
  MEAN CORPUSCULAR HEMOGLOBIN CONCENTRATION: 39.2 G/DL
  MEAN CORPUSCULAR VOLUME: 62.73 fL
  MONOCYTE: 1.33%
  NEUTROPHIL: 7%
  NUCLEATED RED BLOOD CELLS: 0 /100WBC
  PLATELET COUNT: 1354.67 x10E3/uL
  ALANINE AMINOTRANSFERASE: 43.33 u/L
  ALBUMIN: 4.2 G/DL
  ALKALINE PHOSPHATASE: 360.33 u/L
  ASPARTATE AMINOTRANSFERASE: 88.67 u/L
  BLOOD UREA NITROGEN: 18.33 mg/dL
  CARBON DIOXIDE: 26.33 mmol/L
  CHLORIDE: 100.67 MEQ/L
  CHOLESTEROL: 65 mg/dL
  CREATINE PHOSPHOKINASE: 452 u/L
  CREATININE: 0.23 mg/dL
  GLUCOSE: 148.33 mg/dL
  LACTATE DEHYDROGENASE: 641.33 u/L
  LIPASE: 10.33 u/L
  PHOSPHORUS: 11.33 mg/dL
  POTASSIUM: 6.45 MEQ/L
  SODIUM: 141.2 MEQ/L
  TOTAL BILIRUBIN: 0.23 mg/dL
  TOTAL PROTEIN: 5.9 G/DL
  URIC ACID: 1.6 mg/dL
